The values below come from patent publication US9458102B2 (priority 2011, dated 2016).

Data set [1] addresses heteromeric rod CNG channels consisting of CNGA1 and CNGB1 subunits (Bos taurus, UniProt Q00194+Q28181). Put plainly: biochemical. Format: cell-based. The settings on record: 2 mM cGMP; for voltage dependence of block: +50 vs −50 mV. How it is done: Currents were elicited by a voltage step protocol from 0 to −50 to +50 mV (See FIG. 1) in the presence of 2 mM cGMP or 2 mM cGMP and compound (5 μM). Time scale is shown in the lower left-hand corner of the panel and FIG. 1, and the zero current level is indicated by the dotted line.
The solid line indicates the fit of the equation for block at a single binding site.
Time scale is shown in the lower left-hand corner of the panel and FIG. 1, and the zero current level is indicated by the dotted line. […] Solid line indicates the fit of the equation for block at a single binding site.
The effectiveness of retinal rod CNG channel current block by the disclosed compounds was tested in Xenopus oocyte preparations. Excised, inside-out patches pulled from oocytes expressed heteromeric rod CNG channels consisting of CNGA1 and CNGB1 subunits. […] CNG channel currents were elicited by a voltage step protocol to −50 and +50 mV (FIG. 1). The apparent KD value at each membrane potential was estimated first by determining I+B and I−B at steady state, where I+B is the current in the presence of blocker and I−B is current in the absence of blocker, for different blocker concentrations ([B]).
Ovaries were surgically removed from adult Xenopus laevis females (Xenopus Express; Brooksville, Fla.) anesthetized with ice-cold 0.1% tricaine and 0.1% NaHCO3 solution. Oocytes were chemically released from ovarian follicles in Ca^2+-free Barth's solution (88 mM NaCl, 1 mM KCl, 2.4 mM NaHCO3, 0.82 mM MgSO4, 7.5 mM Tris, 2.5 mM sodium pyruvate, 100 U/mL penicillin, and 100 μg/mL streptomycin, pH 7.4) containing 0.1 U/mL Liberase Blendzymes (Roche, Indianapolis, Ind.). Stages IV and V oocytes were visually sorted and stored in ND-96 (96 mM NaCl, 2 mM KCl, 1.8 mM CaCl2, 1 mM MgCl2, 5 mM HEPES, 2.5 mM sodium pyruvate, 100 U/mL penicillin, and 100 μg/mL streptomycin, pH 7.4) at 16° C. Oocytes were co-injected the following day with 33 ng of CNGA1 and 67 ng of CNGB1 cRNA […] synthesized from linearized pGEM-HE expression vectors containing the channel subunit cDNA sequence (Strassmaier T & Karpen J, J Med Chem 50, 4186-4194, (2007), incorporated by reference herein) using T7 mMESSAGE mMACHINE® (Ambion, Austin, Tex.). Injected oocytes were incubated at 18° C. the first day and 16° C. for the remaining days.
Recordings from inside-out excised patches were made 3-7 days after oocyte injection on an Axopatch 1D® amplifier (Axon Instruments, Foster City, Calif.). Briefly, oocyte vitelline membranes were removed in solution containing 200 mM K aspartate, 20 mM KCl, 1 mM MgCl2, 10 mM EGTA, 10 mM HEPES, pH 7.4. Oocytes were placed in a recording chamber in a solution containing 130 mM NaCl, 2 mM HEPES, 0.02 mM EDTA, 1 mM EGTA, pH 7.6, and borosilicate glass electrodes (1-3 MΩ) were filled with identical solution. Macroscopic currents were filtered at 1 kHz and sampled at 2 kHz using pCLAMP 8.0® software (Axon Instruments). Channels were either fully activated with 2 mM or partially activated with 50 and 100 μM cGMP. […] Glass syringes and Teflon tubing were used to minimize the binding of compounds to surfaces; concentrations passing through the perfusion system were verified by absorbance.

A further data set deals with T1, chymotrypsin (Bos taurus, UniProt P00766).
T1 construct: purchased Worthington Biochemical Co
In words: In vitro hydrolysis by chymotrypsin. Format: in vitro ADME. How it is done:
All enzymatic assays were performed with 50 μM compound in 0.1M phosphate buffer, pH 7.4, at 37° C. with stirring, unless otherwise noted. Butyrylcholinesterase stock solutions from human serum (Sigma, St. Louis, Mo.) were prepared at 100 U/mL in 0.1 M phosphate buffer, pH 7.4, and stored at −20° C. until use. Hydrolysis was monitored on an 8452A diode array spectrophotometer (Hewlett-Packard). Product peak wavelength absorption was immediately monitored upon addition of compound. Absorbances for complete hydrolysis were determined when there were no further detectable changes. […] All hydrolysis assays were performed in triplicate, and final rate constants are expressed as the mean±SD of the three individually determined rate constants. […] Activity of chymotrypsin (bovine, Worthington Biochemical Co., 190 μg/mL) was verified with 90 μM 4-nitrophenyl acetate in 0.1 M HEPES solution, pH 6.5, at 37° C. with stirring. Hydrolysis product was monitored at 404 nm for 10 min. Activity of proteinase K (from Engyodontium album, Sigma, 165 μg/mL) was verified with 16.5 mg/mL bovine serum albumin in 0.1 M phosphate buffer, pH 7.4, at 37° C. Samples were taken at time point increments up to 2 hours when the reaction reached completion. Samples were analyzed with 12% SDS-PAGE, stained with 0.1% Coomassie Blue.

In another data set the target is T2, proteinase K (Parengyodontium album, UniProt P06873).
T2 construct: purchased Sigma
Put plainly: In vitro hydrolysis by proteinase K. Format: in vitro ADME, Engyodontium album. How it is done:
Hydrolysis products of 4-nitrophenyl acetate and BSA were detected as positive controls.
All enzymatic assays were performed with 50 μM compound in 0.1M phosphate buffer, pH 7.4, at 37° C. with stirring, unless otherwise noted. Butyrylcholinesterase stock solutions from human serum (Sigma, St. Louis, Mo.) were prepared at 100 U/mL in 0.1 M phosphate buffer, pH 7.4, and stored at −20° C. until use. Hydrolysis was monitored on an 8452A diode array spectrophotometer (Hewlett-Packard). Product peak wavelength absorption was immediately monitored upon addition of compound. Absorbances for complete hydrolysis were determined when there were no further detectable changes. […] All hydrolysis assays were performed in triplicate, and final rate constants are expressed as the mean±SD of the three individually determined rate constants. In some experiments with compound 1, samples were taken at the beginning and end of the assay to verify the hydrolysis product and the completion of the reaction by HPLC. These samples were compared to compounds 1 and 3 on a C18 column eluted with 0.1% TFA in water/acetonitrile. Activity of chymotrypsin (bovine, Worthington Biochemical Co., 190 μg/mL) was verified with 90 μM 4-nitrophenyl acetate in 0.1 M HEPES solution, pH 6.5, at 37° C. with stirring. Hydrolysis product was monitored at 404 nm for 10 min. Activity of proteinase K (from Engyodontium album, Sigma, 165 μg/mL) was verified with 16.5 mg/mL bovine serum albumin in 0.1 M phosphate buffer, pH 7.4, at 37° C. Samples were taken at time point increments up to 2 hours when the reaction reached completion. Samples were analyzed with 12% SDS-PAGE, stained with 0.1% Coomassie Blue.

[2] abbreviates: +50 mV, concentration series of FIG. 4 / FIG. 5, read-out: KD values determined from the fit of the equation.
[3] abbreviates: Table 1, +50 mV, mean±SD, not corrected for ion accumulation, read-out: KD(+50).
Where [4] appears, read: Table 1, −50 mV, mean±SD, not corrected for ion accumulation, read-out: KD(−50).
Where [5] appears, read: −50 mV, concentration series of FIG. 4 / FIG. 5, read-out: KD values determined from the fit of the equation.

Molecules are shown by their SMILES. Where two headings read alike, the source gives them in different places.

Chain of heteromeric rod CNG channels consisting of CNGA1 and CNGB1 subunits (Q00194 whole entry): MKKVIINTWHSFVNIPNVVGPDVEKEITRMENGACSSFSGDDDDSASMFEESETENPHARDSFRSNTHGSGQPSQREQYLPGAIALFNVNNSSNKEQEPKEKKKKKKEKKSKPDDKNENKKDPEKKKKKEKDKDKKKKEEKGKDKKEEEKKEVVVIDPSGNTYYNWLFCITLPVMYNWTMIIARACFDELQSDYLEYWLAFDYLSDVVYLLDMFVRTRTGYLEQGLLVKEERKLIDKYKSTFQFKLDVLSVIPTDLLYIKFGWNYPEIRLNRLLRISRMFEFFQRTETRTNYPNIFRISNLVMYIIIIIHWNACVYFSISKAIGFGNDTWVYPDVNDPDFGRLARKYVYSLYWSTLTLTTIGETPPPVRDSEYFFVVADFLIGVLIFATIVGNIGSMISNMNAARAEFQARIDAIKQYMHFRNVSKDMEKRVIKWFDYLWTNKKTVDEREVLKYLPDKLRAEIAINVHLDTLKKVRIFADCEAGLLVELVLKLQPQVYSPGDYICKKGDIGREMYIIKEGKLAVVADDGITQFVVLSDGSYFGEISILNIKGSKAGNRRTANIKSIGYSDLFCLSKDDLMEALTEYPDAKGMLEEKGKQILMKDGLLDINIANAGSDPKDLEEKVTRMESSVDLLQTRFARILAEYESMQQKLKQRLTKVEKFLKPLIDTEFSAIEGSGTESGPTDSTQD
Chain of heteromeric rod CNG channels consisting of CNGA1 and CNGB1 subunits (Q28181 whole entry): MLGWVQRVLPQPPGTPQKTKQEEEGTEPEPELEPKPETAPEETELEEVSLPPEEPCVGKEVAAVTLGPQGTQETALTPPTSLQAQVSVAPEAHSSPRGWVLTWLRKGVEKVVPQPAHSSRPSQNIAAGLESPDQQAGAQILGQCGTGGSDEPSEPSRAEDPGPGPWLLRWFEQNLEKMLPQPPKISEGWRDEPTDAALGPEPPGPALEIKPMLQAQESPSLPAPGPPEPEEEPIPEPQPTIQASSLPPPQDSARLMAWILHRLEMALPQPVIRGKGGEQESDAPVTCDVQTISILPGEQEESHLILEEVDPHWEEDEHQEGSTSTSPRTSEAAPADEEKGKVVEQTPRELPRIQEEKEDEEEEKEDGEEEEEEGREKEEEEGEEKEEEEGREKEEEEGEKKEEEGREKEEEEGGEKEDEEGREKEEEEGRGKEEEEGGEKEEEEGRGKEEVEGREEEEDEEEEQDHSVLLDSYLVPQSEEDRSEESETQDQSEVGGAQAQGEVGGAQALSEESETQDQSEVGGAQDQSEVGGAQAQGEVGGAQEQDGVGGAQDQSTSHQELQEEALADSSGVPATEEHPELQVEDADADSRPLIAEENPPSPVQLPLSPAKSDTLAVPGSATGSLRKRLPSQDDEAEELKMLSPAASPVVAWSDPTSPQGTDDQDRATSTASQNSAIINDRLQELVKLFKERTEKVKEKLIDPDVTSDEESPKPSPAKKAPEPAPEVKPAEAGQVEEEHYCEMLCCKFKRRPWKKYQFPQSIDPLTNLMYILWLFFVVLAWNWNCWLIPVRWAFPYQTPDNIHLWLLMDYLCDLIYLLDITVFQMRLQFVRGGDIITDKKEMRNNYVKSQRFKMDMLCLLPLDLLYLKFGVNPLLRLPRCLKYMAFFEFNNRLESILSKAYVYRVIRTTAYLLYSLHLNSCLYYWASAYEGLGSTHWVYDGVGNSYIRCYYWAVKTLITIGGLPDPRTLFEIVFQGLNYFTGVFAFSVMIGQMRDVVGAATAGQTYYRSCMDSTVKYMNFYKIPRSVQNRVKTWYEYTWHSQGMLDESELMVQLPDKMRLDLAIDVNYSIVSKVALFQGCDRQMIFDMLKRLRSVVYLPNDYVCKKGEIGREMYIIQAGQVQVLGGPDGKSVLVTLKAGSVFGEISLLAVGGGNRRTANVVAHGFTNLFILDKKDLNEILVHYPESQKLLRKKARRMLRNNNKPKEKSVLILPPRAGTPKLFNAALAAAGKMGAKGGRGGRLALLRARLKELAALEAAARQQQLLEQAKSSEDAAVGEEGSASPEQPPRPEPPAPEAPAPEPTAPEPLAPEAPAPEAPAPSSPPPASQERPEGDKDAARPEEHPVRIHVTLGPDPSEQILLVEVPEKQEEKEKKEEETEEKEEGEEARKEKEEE
T2 sequence (P06873 106-384): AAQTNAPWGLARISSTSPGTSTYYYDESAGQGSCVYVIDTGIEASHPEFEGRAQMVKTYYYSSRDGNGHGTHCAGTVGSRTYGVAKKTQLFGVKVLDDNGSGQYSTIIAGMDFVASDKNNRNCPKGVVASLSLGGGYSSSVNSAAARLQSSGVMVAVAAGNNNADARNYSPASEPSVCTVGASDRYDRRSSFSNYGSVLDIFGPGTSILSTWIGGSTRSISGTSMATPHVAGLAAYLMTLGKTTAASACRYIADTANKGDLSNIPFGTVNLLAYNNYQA

As usually defined, the Kd is the constant that tells how readily two partners part at equilibrium. For `CCCCCCCCNc1ccc(C(=O)OCCN(C)C)cc1` [Compound 5, 2-(Dimethylamino)ethyl 4-(Octylamino)benzoate, reference compound], the “voltage dependence of block” value in data set [1] was “appreciably less voltage dependent than compound 1, 6, and 8”. Also, the Kd turned out to be 1500 nM in data set [1] (setting [2]); 1000 ± 600 nM in data set [1] (setting [3]); 2400 ± 1400 nM in data set [1] (setting [4]); 800 ± 500 nM in data set [1] (octyl series table, +50 mV, read-out: KD(+50)); 1720 ± 1380 nM in data set [1] (octyl series table, −50 mV, read-out: KD(−50)); 1800 nM in data set [1] (setting [5]).
`CCCCNc1ccc(C(=S)NCCN(C)C)cc1` [Compound 8, 4-(Butylamino)-N-(2-(dimethylamino)ethyl)benzothioamide]: the Kd came to 500 nM in data set [1] (setting [2]), 600 ± 300 nM in data set [1] (setting [3]), 3900 ± 1800 nM in data set [1] (setting [4]) and 3700 nM in data set [1] (setting [5]). Further, the “hydrolysis products with chymotrypsin” value on chymotrypsin is “not able to generate any detectable hydrolysis products”. The “hydrolysis products with proteinase K” value on proteinase K is listed as “not able to generate any detectable hydrolysis products”.
As for `CCCCCCCCNc1ccc(C(=S)NCCN(C)C)cc1` [Compound 9, 4-(Octylamino)-N-(2-(dimethylamino)ethyl)benzothioamide], the “voltage dependence of block” value in data set [1] was “appreciably less voltage dependent than compound 1, 6, and 8”. In addition, the figures for the Kd in data set [1] (setting [2]), in data set [1] (setting [3]) and in data set [1] (setting [5]) were 1300 nM, 700 ± 500 nM and 1800 nM, respectively. The “hydrolysis products with chymotrypsin” value at chymotrypsin is “not able to generate any detectable hydrolysis products”. Moreover, the “hydrolysis products with proteinase K” value on proteinase K was “not able to generate any detectable hydrolysis products”.
